Tests used:
[1] = Method: Mice body weight was measured regularly, and organs were collected for determination of possible toxicity.
[2] = tested on: JIMT-1, MDA-MB-436, MDA-MB-157 and BT-474 T-DM1R cell lines; test: Cell viability (SRB) of breast cancer cell lines, three TACC3 inhibitors compared; type: cell-based, human; conditions: all cell lines tested, 72 hours
Method: JIMT-1, MDA-MB-436, MDA-MB-157 and BT-474 T-DM1R cell lines were tested with respect to their response to these three drugs. […] Although higher KHS101 doses was included, which were used by others (Campo & Breuer, 2018), an induction of these markers was only observed at very high doses.

[3] = tested on: JIMT-1 cells; test: Colony formation assay; type: cell-based, human; conditions: 12 days
Method: For monolayer culture, single-cell suspensions of JIMT-1 cells (3×10^3 cells/well) were plated in a 12-well plate. […] In order to test the colony formation capacity of MCF-12A cells during TACC3 overexpression, MCF-12A cells (2×10^5) were seeded into 6-well plates and TACC3 trasnfection was performed next day. 48 h following transfection, cells were counted and 1×10^3 cells/well were plated into 12-well plates. For both experimental setups, the media were refreshed every 4 days, and cells were incubated for 12 days. Cells were then fixed with 2% paraformaldehyde for 15 min and stained with 1% crystal violet (Merck, Darmstadt, Germany) for 15 min at RT. Surviving colonies (composed of at least 50 cells) were counted with ImageJ software (NIH).

[4] = tested on: CT26; conditions: 25-50 mg/kg daily and orally
Method: (§1) Female nude mice and Balb/c mice were injected with human colon carcinoma cell line, HCT-116, and murine colon carcinoma cell line, CT26, respectively, into flank region of mice.
(§2) 4×10^6 HCT-116 and 1×10^6 cells were prepared either in matrigel:PBS or in PBS, respectively, and injected subcutaneously into flank region of mice. […] Mice body weight was measured regularly.

[5] = tested on: HCT-116; conditions: 25-50 mg/kg daily and orally
Method: as §1, §2

[6] = tested on: MCF-12A; test: Cell viability of normal breast epithelial cells; type: cell-based, human; conditions: 5, 10 μM
Method: Next, the specificity of compound 5 towards cancer cell lines over normal cells were tested. […] To test the transforming potential of TACC3 and dependency of cells to TACC3 to survive, we performed a clonogenic growth assay in MCF-12A cells after overexpressing TACC3. […] To exclude the possibility that the differences we observed between cancer and normal cells are due to the differences in the proliferation rates of these cells, we calculated their doubling times.

[7] = target: TACC3 (Homo sapiens, UniProt Q9Y6A5); test: Isothermal titration calorimetry (ITC) of TACC3 into compound 5; type: binding; parameters: purchased Origene TP310754; conditions: 25° C.
Method: DARTS is a label free-strategy to identify potential direct protein targets for small molecules and is based on stabilization and protection from proteolysis of the target protein upon binding to small molecules (Lomenick, Jung et al. 2011, Pai, Lomenick et al. 2015).
Titrations were carried out using Microcal 200 equipment (GE Healthcare, Austria) at 25° C. For each titration, 10 injections were made with 6 min spacing. The reference power was set at 2 μcal/sec, and the sample cell was continuously stirred at 500 rpm. In order to assess the binding efficiency between drug and protein, background data obtained by protein injected into buffer alone was subtracted from the experimental isotherms. The data was analyzed using Origin 7 Software provided along with the ITC200, and binding parameters such as association constant (Ka), number of binding sites (N) and enthalpy (ΔH) were calculated.

[8] = Stability in human liver microsomes; type: in vitro ADME
[9] = Stability in mouse liver microsomes; type: in vitro ADME
[10] = tested on: JIMT-1 cells; test: Immunofluorescence of aberrant spindle formation; type: cell-based, human; conditions: highest dose, 12 h
Description: The presence of spindle defects activates the spindle assembly checkpoint (SAC) that further leads to mitotic arrest to provide the necessary time for repairing the spindle defects (Musacchio and Salmon 2007). […] To further test the contribution of an active SAC signaling to compound 5-induced mitotic arrest, DNA damage and cell death, we inhibited the SAC kinase, Mps1 using a specific inhibitor (TC Mps1 (Choi, Min et al. 2017)) in compound 5-treated cells, and analyzed the expression of relevant markers.
Immunofluorescence staining of JIMT-1 cells were performed as previously described (Cizmecioglu, Arnold et al. 2010). Basically, 1.5×10^5 JIMT-1 cells/well were seeded on glass coverslip in 6-well plates. […] Then, they are fixed with ice-cold methanol for 10 min at −20° C. Cells were then blocked with 3% BSA in PBS solution for 1 hour at RT and incubated with primary and secondary antibodies for 1 hour at RT. Cells were counter stained with DAPI for 5 min (0.01 μg/ml). Lastly, cover slides were mounted using ImmunoHistomounth (Santa Cruz). Images were taken with an upright fluorescent microscope equipped with DIC prisms (upright).

SMILES: COc1ccc(-c2cc(Nc3ccnc(N4CCOCC4)n3)on2)cc1 [Compound 5]
- body weight and observable toxicity ([1]; 100 mg/kg daily for 7 days): did not affect body weight
- organ toxicity ([1]; 500 mg/kg once): no organ toxicity was observable
- loss of body weight ([1]; 500 mg/kg once, 24 h after drug treatment): 10%
- IC50 values compared with KHS101 and SPL-B [2]: significantly lower IC50 values
- average colony number compared with other two inhibitors at the same doses [3]: significantly lower
- tolerability [4]: well tolerated
- tumor growth [4]: significantly impaired tumor growth
- tolerability [5]: well tolerated
- tumor growth [5]: significantly impaired tumor growth
- growth inhibition of cells at high doses [6]: did not reach to 50% growth inhibition
- Kd [7]: 1.5 nM
- N (number of binding sites) [7]: 0.704
- ΔH [7]: 4.929e+07 cal/mol
- ΔS [7]: 1.65E5 cal/mol/deg
- stability in human liver microsomes [8]: low stability
- stability in mouse liver microsomes [9]: low stability
- frequency of multipolar spindles [10]: 73.4%
